We go through 16 compounds from patent US20240034733A1, “KRAS G12D INHIBITORS” (Mirati Therapeutics, Inc., priority 2020, published 2024).

Assay [1] has as its target T1, GDP-loaded recombinant human KRAS G12D (Homo sapiens, UniProt P01116, G12D).
T1 construct: corresponding to amino acids 1:169, produced at Array BioPharma; biotin (biotinylated); made in house
Description: KRas G12D Binding Assay (TR-FRET displacement of Cy5 labelled tracer). The conditions noted are these: 60 minute incubation at 22° C. As to the method: This Example illustrates that exemplary compounds of the present invention bind to KRas G12D and are capable of displacing a labeled tracer ligand occupying the KRas G12D binding site.
The ability of a compound to bind to KRAS G12D was measured using a TR-FRET displacement assay. Biotinylated GDP-loaded recombinant human KRAS G12D (corresponding to amino acids 1:169, produced at Array BioPharma) was incubated with a custom-made Cy5 labelled tracer, europium labelled streptavidin and compound (2% DMSO final) in buffer (50 mM HEPES [pH 7.5], 5 mM MgCl2, 0.005% Tween-20 & 1 mM DTT). After a 60 minute incubation at 22° C., the reaction was measured using a PerkinElmer EnVision multimode plate reader via TR-FRET dual wavelength detection, and the percent of control (POC) calculated using a ratiometric emission factor. […] The POC values were fit to a 4-parameter logistic curve and the IC50 value was determined as the concentration where the curve crosses 50 POC.

Assay [2] concerns KRas G12D-mediated phosphorylation of ERK. Description: Inhibition of KRas G12D-mediated phosphorylation of ERK in AGS cells. Format: cell-based. The conditions noted are these: Homo sapiens; AGS cells expressing G12D, 3 hours, phospho-ERK normalized to GAPDH. As to the method: AGS cells (ATCC CRL-1739) expressing G12D were grown in DMEM medium supplemented with 10% fetal bovine serum, 10 mM HEPES, and Penicillin/Streptomycin. Cells were plated in tissue culture treated 96 well plates at a density of 40,000 cells/well and allowed to attach for 12-14 hours. Diluted compounds were then added in a final concentration of 0.5% DMSO. After 3 hours, the medium was removed, 150 μl of 4.0% formaldehyde was added and the plates incubated at room temperature for 20 minutes. The plates were washed with PBS, and permeabilized with 150p of ice cold 100% methanol for 10 minutes. Non-specific antibody binding to the plates was blocked using 100 μL Licor blocking buffer (Li-Cor Biotechnology, Lincoln NE) for 1 hour at room temperature.
The amount of phosho-ERK was determined using an antibody specific for the phosphorylated form of ERK and compared to the amount of GAPDH. Primary antibodies used for the detection were added as follows: Phospho-ERK (Cell Signaling cs-9101) diluted 1:500 and GAPDH (Millipore MAB374) diluted 1:5000 in Licor block+0.05% Tween 20. The plates were incubated for 2 hours at room temperature. The plates were washed with PBS+0.05% Tween 20.
Secondary antibodies used to visualize primary antibodies were added as follows: Anti-rabbit-680 diluted 1:1000 and Anti-mouse-800 diluted 1:1000 both in Licor block+0.05% Tween20, and were incubated for 1 hour at room temperature. The plates were washed with PBS +0.05% Tween 20. A 100 μl aliquot of PBS was added to each well and the plates were read on a Li-Cor Odyssey CLX plate reader phospho-ERK (Thr202/Tyr204) signal was normalized to the GAPDH signal for each well and percent of DMSO control values were calculated. IC50 values were generated using a 4-parameter fit of the dose response curve

T1 sequence (P01116 1-169 isoform P01116-2 G12D): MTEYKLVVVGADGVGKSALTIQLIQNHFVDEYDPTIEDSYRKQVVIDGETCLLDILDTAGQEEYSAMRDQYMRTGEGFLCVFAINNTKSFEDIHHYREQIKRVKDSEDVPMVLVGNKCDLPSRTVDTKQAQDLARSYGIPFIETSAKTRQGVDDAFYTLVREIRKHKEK

As to `Oc1cc(-c2ccc3c(N4CC5CCC(C4)N5)nc(OCC45CCCN4C[C@H](F)C5)nc3c2F)c2c(Cl)cccc2c1` (mixture of isomers) [Example 5, 4-(4-((1R,5S)-3,8-diazabicyclo[3.2.1]octan-3-yl)-8-fluoro-2-(((2R,7aS)-2-fluorotetrahydro-1H-pyrrolizin-7a(5H)-yl)methoxy)quinazolin-7-yl)-5-chloronaphthalen-2-ol], the IC50 (as a rule, the concentration that gives 50% inhibition) in assay [1] was found to be 1.4 nM; in assay [2], 42 nM.

Regarding `Oc1cccc(F)c1-c1c(Cl)cc2c(N3CC4CCC(C3)N4)nc(OCC34CCCN3C[C@H](F)C4)nc2c1F` (mixture of isomers) [Example 6, 2-(4-((1R,5S)-3,8-diazabicyclo[3.2.1]octan-3-yl)-6-chloro-8-fluoro-2-(((2R,7aS)-2-fluorotetrahydro-1H-pyrrolizin-7a(5H)-yl)methoxy)quinazolin-7-yl)-3-fluorophenol], the IC50 amounted to 3.5 nM in assay [1] and 1800 nM in assay [2].

In the case of `N#Cc1ccccc1Oc1cc2c(N3CC4CCC(C3)N4)nc(OCC34CCCN3C[C@H](F)C4)nc2cc1-c1cc(O)cc2ccccc12` (mixture of isomers) [Example 22, 2-((4-((1R,5R)-3,8-diazabicyclo[3.2.1]octan-3-yl)-2-(((2R,7aS)-2-fluorotetrahydro-1H-pyrrolizin-7a(5H)-yl)methoxy)-7-(3-hydroxynaphthalen-1-yl)quinazolin-6-yl)oxy)benzonitrile], the IC50 came out at 1.7 nM in assay [1] and 140 nM in assay [2].

`N#Cc1ccccc1Oc1cc2c(N3CC4CCC(C3)N4)nc(OCC34CCCN3C[C@H](F)C4)nc2c(F)c1-c1cc(O)cc2ccccc12` (mixture of isomers) [Example 27, 2-((4-((1R,5S)-3,8-diazabicyclo[3.2.1]octan-3-yl)-8-fluoro-2-(((2R,7aS)-2-fluorotetrahydro-1H-pyrrolizin-7a(5H)-yl)methoxy)-7-(3-hydroxynaphthalen-1-yl)quinazolin-6-yl)oxy)benzonitrile]: the IC50 stood at 3.6 nM in assay [1] and 44 nM in assay [2].

In the case of `Oc1cc(-c2ccc3c(N4CC5CCC(C4)N5)nc(OCC45CCCN4C[C@H](F)C5)nc3c2F)c2ccccc2c1` (mixture of isomers) [Example 28, 4-(4-((1R,5S)-3,8-diazabicyclo[3.2.1]octan-3-yl)-8-fluoro-2-(((2R,7aS)-2-fluorotetrahydro-1H-pyrrolizin-7a(5H)-yl)methoxy)quinazolin-7-yl)naphthalen-2-ol], the IC50 is 0.6 nM in assay [1] and 171 nM in assay [2].

For the compound `CN1CCC[C@H]1COc1nc(N2CC3CCC(C2)N3)c2cc(Oc3cccnc3)c(-c3cc(O)cc4ccccc34)cc2n1` [Example 1], the half-inhibitory concentration (IC50) in assay [1] came to 7 nM; in assay [2], 8390 nM.

In the case of `Oc1cc(-c2ccc3c(N4C[C@H]5CC[C@@H](C4)N5)nc(OCC45CCCN4CCC5)nc3c2F)c2ccccc2c1` [Example 3, 4-(4-((1R,5S)-3,8-diazabicyclo[3.2.1]octan-3-yl)-8-fluoro-2-((tetrahydro-1H-pyrrolizin-7a(5H)-yl)methoxy)quinazolin-7-yl)naphthalen-2-ol], the IC50 in assay [1] turned out to be 0.5 nM; in assay [2], 95 nM.

For the compound `Oc1cc(-c2ccc3c(N4C[C@H]5CC[C@@H](C4)N5)nc(OCC45CCCN4CCC5)nc3c2F)c2c(Cl)cccc2c1` [Example 4, 4-(4-((1R,5S)-3,8-diazabicyclo[3.2.1]octan-3-yl)-8-fluoro-2-((tetrahydro-1H-pyrrolizin-7a(5H)-yl)methoxy)quinazolin-7-yl)-5-chloronaphthalen-2-ol], the IC50 in assay [1] came out at 0.7 nM; in assay [2], 21 nM.

Turning to `CN1CCC[C@H]1COc1nc(N2CCN(CCCl)CC2)c2ccc(-c3cc(O)cc4ccccc34)c(F)c2n1` [Example 9, (S)-4-(4-(4-(2-chloroethyl)piperazin-1-yl)-8-fluoro-2-((1-methylpyrrolidin-2-yl)methoxy)quinazolin-7-yl)naphthalen-2-ol], the 50% inhibitory concentration (IC50) worked out at 187 nM in assay [1] and 6790 nM in assay [2].

Turning to `COc1ccc(F)c(Oc2cc3c(N4C[C@H]5CC[C@@H](C4)N5)nc(OC[C@@H]4CCCN4C)nc3cc2-c2cc(O)cc3ccccc23)c1` [Example 17, 4-(4-((1R,5S)-3,8-diazabicyclo[3.2.1]octan-3-yl)-6-(2-fluoro-5-methoxyphenoxy)-2-(((S)-1-methylpyrrolidin-2-yl)methoxy)quinazolin-7-yl)naphthalen-2-ol bis(2,2,2-trifluoroacetate)], the half-maximal inhibitory concentration (IC50) turned out to be 8 nM in assay [1] and 5560 nM in assay [2].

In the case of `COc1ccc(Oc2cc3c(N4C[C@H]5CC[C@@H](C4)N5)nc(OC[C@@H]4CCCN4C)nc3cc2-c2cc(O)cc3ccccc23)c(Cl)c1` [Example 18, 4-(4-((1R,5S)-3,8-diazabicyclo[3.2.1]octan-3-yl)-6-(2-chloro-4-methoxyphenoxy)-2-(((S)-1-methylpyrrolidin-2-yl)methoxy)quinazolin-7-yl)naphthalen-2-ol], the results for the IC50 in assay [1] and in assay [2] were 11.5 nM and 1370 nM, respectively.

Regarding `CN1CCC[C@H]1COc1nc(N2C[C@H]3CC[C@@H](C2)N3)c2cc(Oc3ccccc3Cl)c(-c3cc(O)cc4ccccc34)cc2n1` [Example 19, 4-(4-((1R,5S)-3,8-diazabicyclo[3.2.1]octan-3-yl)-6-(2-chlorophenoxy)-2-(((S)-1-methylpyrrolidin-2-yl)methoxy)quinazolin-7-yl)naphthalen-2-ol], the IC50 came out at 1.3 nM in assay [1] and 1700 nM in assay [2].

Consider `CN1CCC[C@H]1COc1nc(N2C[C@H]3CC[C@@H](C2)N3)c2cc(Oc3ccccc3C#N)c(-c3cc(O)cc4ccccc34)cc2n1` [Example 20, 2-((4-((1R,5S)-3,8-diazabicyclo[3.2.1]octan-3-yl)-7-(3-hydroxynaphthalen-1-yl)-2-(((S)-1-methylpyrrolidin-2-yl)methoxy)quinazolin-6-yl)oxy)benzonitrile], for which the values for the IC50 in assay [1] and in assay [2] were 1.6 nM and 2160 nM, respectively.

`N#Cc1ccccc1Oc1cc2c(N3C[C@H]4CC[C@@H](C3)N4)nc(OCC34CCCN3CCC4)nc2cc1-c1cc(O)cc2ccccc12` [Example 21, 2-((4-((1R,5S)-3,8-diazabicyclo[3.2.1]octan-3-yl)-7-(3-hydroxynaphthalen-1-yl)-2-((tetrahydro-1H-pyrrolizin-7a(5H)-yl)methoxy)quinazolin-6-yl)oxy)benzonitrile]: the 50% inhibitory concentration (IC50) in assay [1] came to 1 nM; in assay [2], 1270 nM.

Take `Oc1cc(-c2cc3nc(OC[C@@]45CCCN4C[C@H](F)C5)nc(N4C[C@H]5CC[C@@H](C4)N5)c3cc2Oc2ccccc2Cl)c2c(Cl)cccc2c1` [Example 23, 4-(4-((1R,5S)-3,8-diazabicyclo[3.2.1]octan-3-yl)-6-(2-chlorophenoxy)-2-(((2R,7aS)-2-fluorotetrahydro-1H-pyrrolizin-7a(5H)-yl)methoxy)quinazolin-7-yl)-5-chloronaphthalen-2-ol]: the IC50 in assay [1] amounted to 6.6 nM; in assay [2], 264 nM.

As to `CN1CCC[C@H]1COc1nc(N2C[C@H]3CC[C@@H](C2)N3)c2cc(Oc3ccccc3C#N)c(-c3cc(O)cc4ccccc34)c(F)c2n1` [Example 24, 2-((4-((1R,5S)-3,8-diazabicyclo[3.2.1]octan-3-yl)-8-fluoro-7-(3-hydroxynaphthalen-1-yl)-2-(((S)-1-methylpyrrolidin-2-yl)methoxy)quinazolin-6-yl)oxy)benzonitrile], the IC50 in assay [1] amounted to 1.4 nM; in assay [2], 377 nM.
